Laboratory results from US9695155B2, “Herbicidal substituted pyrimidinyloxy benzene compounds” (E. I. DU PONT DE NEMOURS AND COMPANY, priority 2013, dated 2017).

Legend:
galium [1] = assay: Test A postemergence; format: in vivo, Galium aparine; settings: 0 to 100 scale where 0 is no effect and 100 is complete control
Procedure, shortened: (§1)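 Greenhouse pot test, loam/sand soil. Formulation: non-phytotoxic solvent mix plus surfactant. Pre: directed spray onto soil after sowing. Post: plants at 1–2 leaf, 2–10 cm. Rated visually vs untreated controls at ~10 d, 0 (no effect) to 100 (complete control).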

soybean = assay: Test C preemergence; format: in vivo, Glycine max; settings: Glycine max, pre-emergence
Procedure, shortened: (§2)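 Plants were kept under greenhouse conditions for 13–15 days following spray. Pre-emergent application went to soil (loam–sand), post-emergent to foliage at 1–4 leaves. Evaluation: visual, percent control against untreated checks.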

pigweed = assay: Test C preemergence; format: in vivo, Amaranthus retroflexus; settings: Amaranthus retroflexus, pre-emergence
Procedure, shortened: as §2

kochia [2] = assay: Test A postemergence; format: in vivo, Kochia scoparia; settings: 0 to 100 scale where 0 is no effect and 100 is complete control
Procedure, shortened: as §1

galium [3] = assay: Test C preemergence; format: in vivo, Galium aparine; settings: Galium, pre-emergence
Procedure, shortened: as §2

waterhemp = assay: Test C preemergence; format: in vivo, Amaranthus rudis; settings: Amaranthus tuberculatus, pre-emergence
Procedure, shortened: as §2

blackgrass = assay: Test C preemergence; format: in vivo, Alopecurus myosuroides; settings: Alopecurus myosuroides, pre-emergence
Procedure, shortened: as §2

oilseed rape = assay: Test C preemergence; format: in vivo, Brassica napus; settings: Brassica napus, pre-emergence
Procedure, shortened: as §2

barnyardgrass = assay: Test C preemergence; format: in vivo, Echinochloa crus-galli; settings: Echinochloa crus-galli, pre-emergence
Procedure, shortened: as §2

ragweed = assay: Test C preemergence; format: in vivo, Ambrosia elatior; settings: Ambrosia artemisiifolia, pre-emergence
Procedure, shortened: as §2

kochia [4] = assay: Test A preemergence; format: in vivo, Kochia scoparia; settings: 0 to 100 scale where 0 is no effect and 100 is complete control
Procedure, shortened: as §1

johnsongrass = assay: Test C preemergence; format: in vivo, Sorghum halepense; settings: Sorghum halepense, pre-emergence
Procedure, shortened: as §2

Italian ryegrass = assay: Test A preemergence; format: in vivo, Lolium multiflorum; settings: 0 to 100 scale where 0 is no effect and 100 is complete control
Procedure, shortened: as §1

lambsquarters = assay: Test C preemergence; format: in vivo, Chenopodium album; settings: Chenopodium album, pre-emergence
Procedure, shortened: as §2

giant foxtail = assay: Test C preemergence; format: in vivo, Setaria faberii; settings: Setaria faberi, pre-emergence
Procedure, shortened: as §2

yellow nutsedge = assay: Test C preemergence; format: in vivo, Cyperus esculentus; settings: Cyperus, pre-emergence
Procedure, shortened: as §2

wheat, winter = assay: Test C preemergence; format: in vivo, Triticum aestivum; settings: Triticum aestivum, pre-emergence
Procedure, shortened: as §2

velvetleaf = assay: Test C preemergence; format: in vivo, Abutilon theophrasti; settings: Abutilon theophrasti, pre-emergence
Procedure, shortened: as §2

N#Cc1cccc(Oc2ncc(Cl)cn2)c1-n1cc(SC(F)(F)F)cn1 [Compound 134, 3-[(5-chloro-2-pyrimidinyl)oxy]-2-[4-(trifluoromethylthio)-1-pyrazolyl]benzonitrile]
90%: pest or weed control at 62 g/ha (galium [3]; 62 g ai/ha, preemergence, scale 0 (no effect) to 100 (complete control), read-out: Galium plant response rating)
100%: pest or weed control at 16 g/ha (pigweed; 16 g ai/ha, preemergence, scale 0 to 100 (0 no effect, 100 complete control), read-out: Pigweed plant response rating) | pest or weed control at 62 g/ha (pigweed; 62 g ai/ha, preemergence, scale 0 (no effect) to 100 (complete control), read-out: Pigweed plant response rating) | pest or weed control at 125 g/ha (pigweed; 125 g ai/ha, preemergence, scale 0 (no effect) to 100 (complete control), read-out: Pigweed plant response rating) | pest or weed control at 31 g/ha (pigweed; Preemergence, 31 g ai/ha, scale 0 to 100, 0 no effect, 100 complete control, read-out: Plant response rating, Pigweed) | pest or weed control at 62 g/ha (waterhemp; 62 g ai/ha, preemergence, scale 0 (no effect) to 100 (complete control), read-out: Waterhemp plant response rating) | pest or weed control at 125 g/ha (waterhemp; 125 g ai/ha, preemergence, scale 0 (no effect) to 100 (complete control), read-out: Waterhemp plant response rating) | pest or weed control at 31 g/ha (waterhemp; Preemergence, 31 g ai/ha, scale 0 to 100, 0 no effect, 100 complete control, read-out: Plant response rating, Waterhemp) | plant injury at 62 g/ha (oilseed rape; 62 g ai/ha, preemergence, scale 0 (no effect) to 100 (complete control), read-out: Oilseed Rape plant response rating) | plant injury at 125 g/ha (oilseed rape; 125 g ai/ha, preemergence, scale 0 (no effect) to 100 (complete control), read-out: Oilseed Rape plant response rating) | pest or weed control at 62 g/ha (lambsquarters; 62 g ai/ha, preemergence, scale 0 (no effect) to 100 (complete control), read-out: Lambsquarters plant response rating) | pest or weed control at 125 g/ha (lambsquarters; 125 g ai/ha, preemergence, scale 0 (no effect) to 100 (complete control), read-out: Lambsquarters plant response rating) | pest or weed control at 31 g/ha (lambsquarters; Preemergence, 31 g ai/ha, scale 0 to 100, 0 no effect, 100 complete control, read-out: Plant response rating, Lambsquarters) | pest or weed control at 62 g/ha (giant foxtail; 62 g ai/ha, preemergence, scale 0 (no effect) to 100 (complete control), read-out: Foxtail, Giant plant response rating) | pest or weed control at 125 g/ha (giant foxtail; 125 g ai/ha, preemergence, scale 0 (no effect) to 100 (complete control), read-out: Foxtail, Giant plant response rating) | pest or weed control at 125 g/ha (velvetleaf; 125 g ai/ha, preemergence, scale 0 (no effect) to 100 (complete control), read-out: Velvetleaf plant response rating)
40: Ryegrass, Italian plant response rating (Italian ryegrass; 500 g ai/ha)
50%: pest or weed control at 125 g/ha (ragweed; 125 g ai/ha, preemergence, scale 0 (no effect) to 100 (complete control), read-out: Ragweed plant response rating)
20: Plant response rating, Ryegrass, Italian (Italian ryegrass; 125 g ai/ha)
45%: pest or weed control at 31 g/ha (blackgrass; Preemergence, 31 g ai/ha, scale 0 to 100, 0 no effect, 100 complete control, read-out: Plant response rating, Blackgrass) | plant injury at 31 g/ha (oilseed rape; Preemergence, 31 g ai/ha, scale 0 to 100, 0 no effect, 100 complete control, read-out: Plant response rating, Oilseed Rape) | pest or weed control at 62 g/ha (johnsongrass; 62 g ai/ha, preemergence, scale 0 (no effect) to 100 (complete control), read-out: Johnsongrass plant response rating)
60%: pest or weed control at 62 g/ha (barnyardgrass; 62 g ai/ha, preemergence, scale 0 (no effect) to 100 (complete control), read-out: Barnyardgrass plant response rating) | pest or weed control at 16 g/ha (lambsquarters; 16 g ai/ha, preemergence, scale 0 to 100 (0 no effect, 100 complete control), read-out: Lambsquarters plant response rating)
25%: pest or weed control at 31 g/ha (ragweed; Preemergence, 31 g ai/ha, scale 0 to 100, 0 no effect, 100 complete control, read-out: Plant response rating, Ragweed) | pest or weed control at 31 g/ha (johnsongrass; Preemergence, 31 g ai/ha, scale 0 to 100, 0 no effect, 100 complete control, read-out: Plant response rating, Johnsongrass)
15%: plant injury at 31 g/ha (soybean; Preemergence, 31 g ai/ha, scale 0 to 100, 0 no effect, 100 complete control, read-out: Plant response rating, Soybean) | pest or weed control at 31 g/ha (barnyardgrass; Preemergence, 31 g ai/ha, scale 0 to 100, 0 no effect, 100 complete control, read-out: Plant response rating, Barnyardgrass) | plant injury at 125 g/ha (wheat, winter; 125 g ai/ha, preemergence, scale 0 (no effect) to 100 (complete control), read-out: Wheat plant response rating)
35%: pest or weed control at 31 g/ha (velvetleaf; Preemergence, 31 g ai/ha, scale 0 to 100, 0 no effect, 100 complete control, read-out: Plant response rating, Velvetleaf)
20%: plant injury at 62 g/ha (soybean; 62 g ai/ha, preemergence, scale 0 (no effect) to 100 (complete control), read-out: Soybean plant response rating) | plant injury at 16 g/ha (oilseed rape; 16 g ai/ha, preemergence, scale 0 to 100 (0 no effect, 100 complete control), read-out: Oilseed Rape plant response rating) | pest or weed control at 16 g/ha (johnsongrass; 16 g ai/ha, preemergence, scale 0 to 100 (0 no effect, 100 complete control), read-out: Johnsongrass plant response rating)
55%: plant injury at 125 g/ha (soybean; 125 g ai/ha, preemergence, scale 0 (no effect) to 100 (complete control), read-out: Soybean plant response rating) | pest or weed control at 62 g/ha (ragweed; 62 g ai/ha, preemergence, scale 0 (no effect) to 100 (complete control), read-out: Ragweed plant response rating)
100: Galium plant response rating (galium [1]; 125 g ai/ha) | Plant response rating, Galium (galium [1]; 500 g ai/ha) | Plant response rating, Kochia (kochia [2]; 500 g ai/ha) | Plant response rating, Kochia (kochia [4]; 125 g ai/ha) | Kochia plant response rating (kochia [4]; 500 g ai/ha)
30%: pest or weed control at 16 g/ha (velvetleaf; 16 g ai/ha, preemergence, scale 0 to 100 (0 no effect, 100 complete control), read-out: Velvetleaf plant response rating)
65%: pest or weed control at 31 g/ha (giant foxtail; Preemergence, 31 g ai/ha, scale 0 to 100, 0 no effect, 100 complete control, read-out: Plant response rating, Foxtail, Giant)
0%: plant injury at 16 g/ha (soybean; 16 g ai/ha, preemergence, scale 0 to 100 (0 no effect, 100 complete control), read-out: Soybean plant response rating) | pest or weed control at 16 g/ha (galium [3]; 16 g ai/ha, preemergence, scale 0 to 100 (0 no effect, 100 complete control), read-out: Galium plant response rating) | pest or weed control at 31 g/ha (galium [3]; Preemergence, 31 g ai/ha, scale 0 to 100, 0 no effect, 100 complete control, read-out: Plant response rating, Galium) | pest or weed control at 16 g/ha (blackgrass; 16 g ai/ha, preemergence, scale 0 to 100 (0 no effect, 100 complete control), read-out: Blackgrass plant response rating) | pest or weed control at 16 g/ha (barnyardgrass; 16 g ai/ha, preemergence, scale 0 to 100 (0 no effect, 100 complete control), read-out: Barnyardgrass plant response rating) | pest or weed control at 16 g/ha (ragweed; 16 g ai/ha, preemergence, scale 0 to 100 (0 no effect, 100 complete control), read-out: Ragweed plant response rating) | pest or weed control at 16 g/ha (yellow nutsedge; 16 g ai/ha, preemergence, scale 0 to 100 (0 no effect, 100 complete control), read-out: Nutsedge, Yellow plant response rating) | pest or weed control at 62 g/ha (yellow nutsedge; 62 g ai/ha, preemergence, scale 0 (no effect) to 100 (complete control), read-out: Nutsedge, Yellow plant response rating) | pest or weed control at 31 g/ha (yellow nutsedge; Preemergence, 31 g ai/ha, scale 0 to 100, 0 no effect, 100 complete control, read-out: Plant response rating, Nutsedge, Yellow) | plant injury at 16 g/ha (wheat, winter; 16 g ai/ha, preemergence, scale 0 to 100 (0 no effect, 100 complete control), read-out: Wheat plant response rating) | plant injury at 62 g/ha (wheat, winter; 62 g ai/ha, preemergence, scale 0 (no effect) to 100 (complete control), read-out: Wheat plant response rating) | plant injury at 31 g/ha (wheat, winter; Preemergence, 31 g ai/ha, scale 0 to 100, 0 no effect, 100 complete control, read-out: Plant response rating, Wheat)
85%: pest or weed control at 16 g/ha (waterhemp; 16 g ai/ha, preemergence, scale 0 to 100 (0 no effect, 100 complete control), read-out: Waterhemp plant response rating) | pest or weed control at 62 g/ha (blackgrass; 62 g ai/ha, preemergence, scale 0 (no effect) to 100 (complete control), read-out: Blackgrass plant response rating) | pest or weed control at 125 g/ha (barnyardgrass; 125 g ai/ha, preemergence, scale 0 (no effect) to 100 (complete control), read-out: Barnyardgrass plant response rating) | pest or weed control at 125 g/ha (johnsongrass; 125 g ai/ha, preemergence, scale 0 (no effect) to 100 (complete control), read-out: Johnsongrass plant response rating) | pest or weed control at 62 g/ha (velvetleaf; 62 g ai/ha, preemergence, scale 0 (no effect) to 100 (complete control), read-out: Velvetleaf plant response rating)
98%: pest or weed control at 125 g/ha (galium [3]; 125 g ai/ha, preemergence, scale 0 (no effect) to 100 (complete control), read-out: Galium plant response rating) | pest or weed control at 125 g/ha (blackgrass; 125 g ai/ha, preemergence, scale 0 (no effect) to 100 (complete control), read-out: Blackgrass plant response rating)
90: Kochia plant response rating (kochia [2]; 125 g ai/ha)
10%: pest or weed control at 16 g/ha (giant foxtail; 16 g ai/ha, preemergence, scale 0 to 100 (0 no effect, 100 complete control), read-out: Foxtail, Giant plant response rating) | pest or weed control at 125 g/ha (yellow nutsedge; 125 g ai/ha, preemergence, scale 0 (no effect) to 100 (complete control), read-out: Nutsedge, Yellow plant response rating)
